Experimental data from patent US20140079836A1, “METHODS AND COMPOSITIONS FOR ALTERING HEALTH, WELLBEING, AND LIFESPAN” (LifeSpan Extension, LLC, priority 2008, published 2014).

Tested on: genes involved in longevity (Array 1)
Test: Custom RT-PCR microarray (Array 1) gene expression in skin fibroblasts, UVB/UVA1
Format: cell-based, human
Details: for RTC gene expression fold change / PPC gene expression fold change: control well
Protocol: Seeding of cells: On Day 1, each cell culture was seeded into 6 well cluster dishes at ˜1.5×10^5 cells in 4 mls medium per well. Three wells were seeded per test condition or control.
Experimental phase: On Day 3, wells were washed 1× with 2 mls medium, fed back 2 mls medium without fetal bovine serum and preincubated for 30-60 minutes before challenge with test or control conditions. After the preincubation, medium was aspirated from the wells and 2.5 mls of test or control condition in medium with 1% fetal bovine serum was pipetted into the appropriate wells.
(3) UVA1, UVB exposed and unexposed cells without test condition were used as controls. The experimental phase ended at 24 hours post UV exposure. Cells from each test and control parameter were then prepped for RNA isolation as described below.
UVB/UVA1 exposure: Cells exposed to UV received 200 mJ/cm^2 UVB/1 MED UVA1 using Thermo Oriel solar simulator model SP66923-3056. Cells were exposed from the bottom of the culture dish. The UV dose delivered to the cells was adjusted for interference from the plastic in the culture dish.
Preparation of RNA: The RNA was isolated using the Qiagen RNEasy Plus Mini Kit according to the manufacturer's protocol which can be found on the World Wilde Web at qiagen.com/literature/Defaultaspx?Term=&Language=EN&LiteratureType=4& ProductCategory=10162. The RNA was quantified and examined for purity using the 260/280 nm read method in a μ Quant spectrophotometer before use in the array.
Creation and Performance of a Custom Microarray (“Array 1”): Through the Custom Array design service of Superarray Bioscience Corporation, a 96 well RT-PCR microarray (“Array 1”) was developed to illustrate genetic responses in cells treated as above for specific genes involved in longevity as well as the relevant quality controls. The array was performed in compliance with manufacturer's guidelines and by recommended manufacturer's protocol as can be found on the World Wilde Web at superarray.com/Manual/perarrayplate.pdf
(§1) Custom Microarray Results: The results from the microarrays were determined using the delta CT method which uses comparisons of control genes and threshold cycles of genes of interest to generate relative expression values. The full set of experimental conditions was cross referenced and the data is provided herewith in DATA TABLE 3.
Preparation of RNA: The RNA was isolated using the Qiagen RNEasy Plus Mini Kit according to the manufacturer's protocol which can be found on the World Wide Web at qiagen.com/literature/Default. aspx?Term=&Language=EN&LiteratureType=4&ProductCategory=10162.
The RNA was quantified and examined for purity using the 260/280 nm read method in a μ Quant spectrophotometer before use in the array.
Creation and Performance of the Custom Microarray: Through the Custom Array design service of Superarray Bioscience Corporation, a 96 well RT-PCR Microarray was developed to illustrate genetic responses in cells treated as above for specific genes involved in longevity as well as the relevant quality controls. The array was performed in compliance with manufacturer's guidelines and by recommended manufacturer's protocol as can be found on the World Wide Web at superarray.com/Manual/perarrayplate.pdf.
as §1, with “4.” for “3.”
as §1, with “5. […]” for “3.”

[1] = donor three vs. donor two idebenone + UVB Continuous Incubation
[2] = donor two idebenone + UVB 4 hr Incubation
[3] = donor two idebenone + UVB Continuous Incubation
[4] = donor two idebenone + UVB vs. Green tea + UVB 4 hr Incubation
[5] = donor two idebenone + UVB vs. Green tea + UVB Continuous Incubation

SMILES: COC1=C(OC)C(=O)C(CCCCCCCCCCO)=C(C)C1=O [Idebenone, 6-(10-hydroxydecyl)-2,3-dimethoxy-5-methyl-1,4-benzoquin-one]
- HSPA1A expression fold change [1]: 2.28
- HSPA1B expression fold change [1]: 2.62
- HSPA1L expression fold change [1]: 1.61
- IFI44 expression fold change [1]: −1.43
- IGF1 expression fold change [1]: −1.08
- IGF2 expression fold change [1]: −1.16
- IL1A expression fold change [1]: 2.20
- IL6 expression fold change [1]: 3.97
- IL10 expression fold change [1]: 1.14
- KRAS expression fold change [1]: 1.18
- MAPK14 expression fold change [1]: 1.03
- NADSYN1 expression fold change [1]: 2.28
- NFKB1 expression fold change [1]: 1.56
- NOS2A expression fold change [1]: 1.56
- PARP1 expression fold change [1]: 2.05
- PARP2 expression fold change [1]: −1.48
- PPARG expression fold change [1]: −1.76
- PTGS2 expression fold change [1]: 2.44
- SHC1 expression fold change [1]: 1.67
- SIRT1 expression fold change [1]: −1.04
- SOD1 expression fold change [1]: 2.44
- SOD2 expression fold change [1]: −1.38
- TEP1 expression fold change [1]: 1.31
- TERT expression fold change [1]: 2.13
- TNF expression fold change [1]: 1.40
- TP53 expression fold change [1]: −1.04
- ACE expression fold change [2]: 1.22
- ACTB expression fold change [2]: −1.01
- APOE expression fold change [2]: 1.03
- BAX expression fold change [2]: 1.40
- BCL2 expression fold change [2]: 1.40
- CASP2 expression fold change [2]: −1.53
- CASP9 expression fold change [2]: 1.27
- CCL4L1 expression fold change [2]: 1.06
- CLK1 expression fold change [2]: −1.24
- COX1 expression fold change [2]: 1.14
- CREBBP expression fold change [2]: 1.10
- CYP19A1 expression fold change [2]: 1.40
- DDC expression fold change [2]: 1.45
- GAPDH expression fold change [2]: −1.95
- GH1 expression fold change [2]: −1.04
- HIGX1A fold change [2]: −1.42
- HLA-DRA expression fold change [2]: 1.22
- HPRT1 expression fold change [2]: 1.03
- HSPA1A expression fold change [2]: 1.06
- HSPA1B expression fold change [2]: 1.56
- HSPA1L expression fold change [2]: 1.40
- IFI44 expression fold change [2]: 2.20
- IGF1 expression fold change [2]: −1.47
- IGF2 expression fold change [2]: 1.06
- IL1A expression fold change [2]: −2.16
- IL6 expression fold change [2]: −11.39
- IL10 expression fold change [2]: 1.14
- KRAS expression fold change [2]: 1.73
- MAPK14 expression fold change [2]: 1.27
- NADSYN1 expression fold change [2]: −1.08
- NFKB1 expression fold change [2]: 2.20
- NOS2A expression fold change [2]: 1.61
- PARP1 expression fold change [2]: 1.92
- PARP2 expression fold change [2]: 1.22
- PPARG expression fold change [2]: 1.18
- PTGS2 expression fold change [2]: 1.61
- SHC1 expression fold change [2]: 2.06
- SIRT1 expression fold change [2]: 1.18
- SOD1 expression fold change [2]: −1.08
- SOD2 expression fold change [2]: 1.27
- TEP1 expression fold change [2]: 1.31
- TERT expression fold change [2]: −1.38
- TNF expression fold change [2]: −1.20
- TP53 expression fold change [2]: −1.64
- ACE expression fold change [3]: 1.92
- ACTB expression fold change [3]: 1.31
- APOE expression fold change [3]: 1.18
- BAX expression fold change [3]: −1.04
- BCL2 expression fold change [3]: 3.83
- CASP2 expression fold change [3]: 1.14
- CASP9 expression fold change [3]: 2.13
- CCL4L1 expression fold change [3]: 1.40
- CLK1 expression fold change [3]: 1.85
- COX1 expression fold change [3]: −1.43
- CREBBP expression fold change [3]: 1.18
- CYP19A1 expression fold change [3]: 1.31
- DDC expression fold change [3]: 1.85
- GAPDH expression fold change [3]: −1.38
- GH1 expression fold change [3]: 3.01
- HIGX1A fold change [3]: 1.22
- HLA-DRA expression fold change [3]: 2.44
- HPRT1 expression fold change [3]: 5.23
- HSPA1A expression fold change [3]: 1.50
- HSPA1B expression fold change [3]: 3.70
- HSPA1L expression fold change [3]: −2.48
- IFI44 expression fold change [3]: 1.56
- IGF1 expression fold change [3]: 3.45
- IGF2 expression fold change [3]: −1.12
- IL1A expression fold change [3]: 3.57
- IL6 expression fold change [3]: 3.01
- IL10 expression fold change [3]: 2.05
- KRAS expression fold change [3]: 2.13
- MAPK14 expression fold change [3]: 2.44
- NADSYN1 expression fold change [3]: 1.56
- NFKB1 expression fold change [3]: 3.70
- NOS2A expression fold change [3]: 1.98
- PARP1 expression fold change [3]: 1.67
- PARP2 expression fold change [3]: 2.53
- PPARG expression fold change [3]: 3.22
- PTGS2 expression fold change [3]: 2.71
- SHC1 expression fold change [3]: 1.92
- SIRT1 expression fold change [3]: 1.98
- SOD1 expression fold change [3]: 1.10
- SOD2 expression fold change [3]: 1.03
- TEP1 expression fold change [3]: 1.79
- TERT expression fold change [3]: 8.50
- TNF expression fold change [3]: 1.50
- TP53 expression fold change [3]: 1.67
- ACE expression fold change [4]: 1.32
- ACTB expression fold change [4]: −3.03
- APOE expression fold change [4]: 1.04
- BAX expression fold change [4]: 1.11
- BCL2 expression fold change [4]: 1.19
- CASP2 expression fold change [4]: −1.23
- CASP9 expression fold change [4]: 1.15
- CCL4L1 expression fold change [4]: 10.95
- CLK1 expression fold change [4]: −1.11
- COX1 expression fold change [4]: −1.19
- CREBBP expression fold change [4]: 1.11
- CYP19A1 expression fold change [4]: 11.33
- DDC expression fold change [4]: 14.95
- GAPDH expression fold change [4]: −2.92
- GH1 expression fold change [4]: 8.30
- HIGX1A fold change [4]: 8.30
- HLA-DRA expression fold change [4]: 16.03
- HPRT1 expression fold change [4]: 1.04
- HSPA1A expression fold change [4]: 1.32
- HSPA1B expression fold change [4]: 2.64
- HSPA1L expression fold change [4]: 1.87
- IFI44 expression fold change [4]: 2.15
- IGF1 expression fold change [4]: 4.77
- IGF2 expression fold change [4]: 1.00
- IL1A expression fold change [4]: 1.28
- IL6 expression fold change [4]: −9.83
- IL10 expression fold change [4]: 4.29
- KRAS expression fold change [4]: −1.11
- MAPK14 expression fold change [4]: 1.32
- NADSYN1 expression fold change [4]: −1.19
- NFKB1 expression fold change [4]: −1.03
- NOS2A expression fold change [4]: 17.18
- PARP1 expression fold change [4]: 1.52
- PARP2 expression fold change [4]: 5.87
- PPARG expression fold change [4]: 2.74
- PTGS2 expression fold change [4]: 2.22
- SHC1 expression fold change [4]: 1.11
- SIRT1 expression fold change [4]: 1.63
- SOD1 expression fold change [4]: 1.52
- SOD2 expression fold change [4]: −1.32
- TEP1 expression fold change [4]: 2.55
- TERT expression fold change [4]: 3.37
- TNF expression fold change [4]: 6.98
- TP53 expression fold change [4]: −1.51
- ACE gene expression fold change [5]: 1.33
- ACTB gene expression fold change [5]: −1.67
- APOE gene expression fold change [5]: 1.16
- BAX gene expression fold change [5]: −1.45
- BCL2 gene expression fold change [5]: −1.10
- CASP2 gene expression fold change [5]: −1.79
- CASP9 gene expression fold change [5]: 1.58
- CCL4L1 gene expression fold change [5]: 4.97
- CLK1 gene expression fold change [5]: 1.01
- COX1 gene expression fold change [5]: −2.53
- CREBBP gene expression fold change [5]: −1.10
- CYP19A1 gene expression fold change [5]: 8.07
- DDC gene expression fold change [5]: 24.46
- GAPDH gene expression fold change [5]: −1.10
- GH1 gene expression fold change [5]: 25.33
- HIGX1A gene expression fold change [5]: 6.12
- HLA-DRA gene expression fold change [5]: 58.18
- HPRT1 gene expression fold change [5]: 2.40
- HSPA1A gene expression fold change [5]: 1.12
- HSPA1B gene expression fold change [5]: 1.16
- HSPA1L gene expression fold change [5]: −1.61
- IFI44 gene expression fold change [5]: 1.29
- IGF1 gene expression fold change [5]: 6.12
- IGF2 gene expression fold change [5]: −1.14
- IL1A gene expression fold change [5]: 10.65
- IL6 gene expression fold change [5]: 1.04
- IL10 gene expression fold change [5]: 4.32
- KRAS gene expression fold change [5]: 1.53
- MAPK14 gene expression fold change [5]: 1.64
- NADSYN1 gene expression fold change [5]: 1.12
- NFKB1 gene expression fold change [5]: 2.24
- NOS2A gene expression fold change [5]: 15.06
- PARP1 gene expression fold change [5]: −1.98
- PARP2 gene expression fold change [5]: 4.48
- PPARG gene expression fold change [5]: 2.16
- PTGS2 gene expression fold change [5]: −1.06
- SHC1 gene expression fold change [5]: 1.48
- SIRT1 gene expression fold change [5]: 1.88
- SOD1 gene expression fold change [5]: −1.56
- SOD2 gene expression fold change [5]: 1.33
- TEP1 gene expression fold change [5]: 1.12
- TERT gene expression fold change [5]: 7.53
- TNF gene expression fold change [5]: 10.29
- TP53 gene expression fold change [5]: 1.88
- RTC gene expression fold change (donor two idebenone + UVB vs. Green tea + UVB Continuous Incubation, entry r283): 1.08
- PPC gene expression fold change (donor two idebenone + UVB vs. Green tea + UVB Continuous Incubation, entry r289): −1.67
- RTC gene expression fold change (donor two idebenone + UVB vs. Green tea + UVB Continuous Incubation, entry r293): 2.09
- PPC gene expression fold change (donor two idebenone + UVB vs. Green tea + UVB Continuous Incubation, entry r295): −1.35
